Columns and labels:
Experiment in all cases: relative viability (nuclei count vs DMSO), 5 days (fraction); higher = more cells survive
EMC-BAC-2 = system: EMC-BAC-2
Procedure, shortened: (§1)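 Relative viability was taken as the ratio of nuclei in treated wells to nuclei in vehicle wells. Lung cancer cell lines in 1536-well plates received compounds by pin tool one day after seeding, either one drug alone or a fixed anchor-drug dose plus five library-drug doses (not always all listed) in √10 steps. Nuclei were counted on 4× images after 5 days of treatment, and values are medians of duplicate plates.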

EPLC-272H = system: EPLC-272H
Procedure, shortened: as §1

H3255 = system: H3255
Procedure, shortened: as §1

HOP-62 = system: HOP-62
Procedure, shortened: as §1

LCLC-97TM1 = system: LCLC-97TM1
Procedure, shortened: as §1

LXF-289 = system: LXF-289
Procedure, shortened: as §1

NCI-H1734 = system: NCI-H1734
Procedure, shortened: as §1

NCI-H1915 = system: NCI-H1915
Procedure, shortened: as §1

NCI-H1993 = system: NCI-H1993
Procedure, shortened: as §1

NCI-H2009 = system: NCI-H2009
Procedure, shortened: as §1

NCI-H2023 = system: NCI-H2023
Procedure, shortened: as §1

NCI-H2085 = system: NCI-H2085
Procedure, shortened: as §1

NCI-H2126 = system: NCI-H2126
Procedure, shortened: as §1

NCI-H2347 = system: NCI-H2347
Procedure, shortened: as §1

NCI-H322M = system: NCI-H322M
Procedure, shortened: as §1

NCI-H647 = system: NCI-H647
Procedure, shortened: as §1

NCI-H661 = system: NCI-H661
Procedure, shortened: as §1

NCI-H727 = system: NCI-H727
Procedure, shortened: as §1

PC-14 = system: PC-14
Procedure, shortened: as §1

SK-LU-1 = system: SK-LU-1
Procedure, shortened: as §1

SW 1573 = system: SW 1573
Procedure, shortened: as §1

O=c1cc(-c2cccc3c2Sc2ccccc2S3)oc(N2CCOCC2)c1 + Cc1cc(Nc2cc(N3CCN(C)CC3)nc(Sc3ccc(NC(=O)C4CC4)cc3)n2)n[nH]1 [Tozasertib] (partner 0.1 µM)
relative viability (EMC-BAC-2; first compound 0.08 µM): 0.242
relative viability (EMC-BAC-2; first compound 0.253 µM): 0.299
relative viability (EMC-BAC-2; first compound 0.8 µM): 0.295
relative viability (EMC-BAC-2; first compound 2.53 µM): 0.257
relative viability (EMC-BAC-2; first compound 8 µM): 0.293
relative viability (EPLC-272H; first compound 0.08 µM): 0.238
relative viability (EPLC-272H; first compound 0.253 µM): 0.193
relative viability (EPLC-272H; first compound 0.8 µM): 0.299
relative viability (EPLC-272H; first compound 2.53 µM): 0.237
relative viability (EPLC-272H; first compound 8 µM): 0.236
relative viability (H3255; first compound 0.08 µM): 0.441
relative viability (H3255; first compound 0.253 µM): 0.604
relative viability (H3255; first compound 0.8 µM): 0.759
relative viability (H3255; first compound 2.53 µM): 0.686
relative viability (H3255; first compound 8 µM): 0.867
relative viability (HOP-62; first compound 0.08 µM): 0.452
relative viability (HOP-62; first compound 0.253 µM): 0.362
relative viability (HOP-62; first compound 0.8 µM): 0.426
relative viability (HOP-62; first compound 2.53 µM): 0.324
relative viability (HOP-62; first compound 8 µM): 0.397
relative viability (LCLC-97TM1; first compound 0.08 µM): 0.223
relative viability (LCLC-97TM1; first compound 0.253 µM): 0.22
relative viability (LCLC-97TM1; first compound 0.8 µM): 0.205
relative viability (LCLC-97TM1; first compound 2.53 µM): 0.228
relative viability (LCLC-97TM1; first compound 8 µM): 0.207
relative viability (LXF-289; first compound 0.08 µM): 0.186
relative viability (LXF-289; first compound 0.253 µM): 0.164
relative viability (LXF-289; first compound 0.8 µM): 0.223
relative viability (LXF-289; first compound 2.53 µM): 0.15
relative viability (LXF-289; first compound 8 µM): 0.17
relative viability (NCI-H1734; first compound 0.08 µM): 0.271
relative viability (NCI-H1734; first compound 0.253 µM): 0.261
relative viability (NCI-H1734; first compound 0.8 µM): 0.265
relative viability (NCI-H1734; first compound 8 µM): 0.26
relative viability (NCI-H1915; first compound 0.08 µM): 0.495
relative viability (NCI-H1915; first compound 0.253 µM): 0.446
relative viability (NCI-H1915; first compound 0.8 µM): 0.428
relative viability (NCI-H1915; first compound 2.53 µM): 0.401
relative viability (NCI-H1915; first compound 8 µM): 0.332
relative viability (NCI-H1993; first compound 0.08 µM): 0.518
relative viability (NCI-H1993; first compound 0.253 µM): 0.55
relative viability (NCI-H1993; first compound 0.8 µM): 0.516
relative viability (NCI-H1993; first compound 2.53 µM): 0.559
relative viability (NCI-H1993; first compound 8 µM): 0.621
relative viability (NCI-H2009; first compound 0.08 µM): 0.74
relative viability (NCI-H2009; first compound 0.253 µM): 0.725
relative viability (NCI-H2009; first compound 0.8 µM): 0.8
relative viability (NCI-H2009; first compound 2.53 µM): 0.737
relative viability (NCI-H2009; first compound 8 µM): 0.578
relative viability (NCI-H2023; first compound 0.08 µM): 0.309
relative viability (NCI-H2023; first compound 0.253 µM): 0.295
relative viability (NCI-H2023; first compound 0.8 µM): 0.302
relative viability (NCI-H2023; first compound 2.53 µM): 0.216
relative viability (NCI-H2023; first compound 8 µM): 0.247
relative viability (NCI-H2085; first compound 0.08 µM): 0.778
relative viability (NCI-H2085; first compound 0.253 µM): 0.724
relative viability (NCI-H2085; first compound 0.8 µM): 0.768
relative viability (NCI-H2085; first compound 2.53 µM): 0.579
relative viability (NCI-H2085; first compound 8 µM): 0.551
relative viability (NCI-H2126; first compound 0.08 µM): 0.825
relative viability (NCI-H2126; first compound 0.253 µM): 0.875
relative viability (NCI-H2126; first compound 0.8 µM): 0.824
relative viability (NCI-H2126; first compound 2.53 µM): 0.781
relative viability (NCI-H2126; first compound 8 µM): 0.788
relative viability (NCI-H2347; first compound 0.08 µM): 0.668
relative viability (NCI-H2347; first compound 0.253 µM): 0.605
relative viability (NCI-H2347; first compound 0.8 µM): 0.351
relative viability (NCI-H2347; first compound 2.53 µM): 0.53
relative viability (NCI-H2347; first compound 8 µM): 0.404
relative viability (NCI-H322M; first compound 0.08 µM): 0.494
relative viability (NCI-H322M; first compound 0.253 µM): 0.446
relative viability (NCI-H322M; first compound 0.8 µM): 0.464
relative viability (NCI-H322M; first compound 2.53 µM): 0.449
relative viability (NCI-H322M; first compound 8 µM): 0.467
relative viability (NCI-H647; first compound 0.08 µM): 0.325
relative viability (NCI-H647; first compound 0.253 µM): 0.0459
relative viability (NCI-H647; first compound 0.8 µM): 0.224
relative viability (NCI-H647; first compound 2.53 µM): 0.171
relative viability (NCI-H647; first compound 8 µM): 0.462
relative viability (NCI-H661; first compound 0.08 µM): 0.357
relative viability (NCI-H661; first compound 0.253 µM): 0.357
relative viability (NCI-H661; first compound 0.8 µM): 0.351
relative viability (NCI-H661; first compound 2.53 µM): 0.339
relative viability (NCI-H661; first compound 8 µM): 0.353
relative viability (NCI-H727; first compound 0.08 µM): 0.656
relative viability (NCI-H727; first compound 0.253 µM): 0.633
relative viability (NCI-H727; first compound 0.8 µM): 0.609
relative viability (NCI-H727; first compound 2.53 µM): 0.535
relative viability (NCI-H727; first compound 8 µM): 0.668
relative viability (PC-14; first compound 0.08 µM): 0.594
relative viability (PC-14; first compound 0.253 µM): 0.572
relative viability (PC-14; first compound 0.8 µM): 0.548
relative viability (PC-14; first compound 8 µM): 0.554
relative viability (SK-LU-1; first compound 0.08 µM): 0.309
relative viability (SK-LU-1; first compound 0.253 µM): 0.312
relative viability (SK-LU-1; first compound 0.8 µM): 0.313
relative viability (SK-LU-1; first compound 2.53 µM): 0.269
relative viability (SK-LU-1; first compound 8 µM): 0.322
relative viability (SW 1573; first compound 0.08 µM): 0.175
relative viability (SW 1573; first compound 0.253 µM): 0.186
relative viability (SW 1573; first compound 0.8 µM): 0.197
relative viability (SW 1573; first compound 2.53 µM): 0.175
relative viability (SW 1573; first compound 8 µM): 0.125

— the supplement of paper PMC10307832
